In patent US12139520B2 (priority 2020, dated 2024):
Bridge positions count the residues as written; N and C are the ends. Square brackets hold non-standard residues; d marks the D form. Peptide text beside a SMILES is read from it. Hyp = O=C(O)[C@@H]1C[C@@H](O)CN1; Cit = NC(=O)NCCC[C@H](N)C(=O)O

Tests used:
hAMY3 receptor = molecular target: T1, hAMY3 receptor (Homo sapiens, UniProt O60896+P30988); test: cAMP assay for in vitro receptor activation, hAMY3-R; assay type: cell-based; settings: cAMP assay, hAMY3 receptor; read-out: hAMY3R EC50
T1 sequence (P30988 25-474): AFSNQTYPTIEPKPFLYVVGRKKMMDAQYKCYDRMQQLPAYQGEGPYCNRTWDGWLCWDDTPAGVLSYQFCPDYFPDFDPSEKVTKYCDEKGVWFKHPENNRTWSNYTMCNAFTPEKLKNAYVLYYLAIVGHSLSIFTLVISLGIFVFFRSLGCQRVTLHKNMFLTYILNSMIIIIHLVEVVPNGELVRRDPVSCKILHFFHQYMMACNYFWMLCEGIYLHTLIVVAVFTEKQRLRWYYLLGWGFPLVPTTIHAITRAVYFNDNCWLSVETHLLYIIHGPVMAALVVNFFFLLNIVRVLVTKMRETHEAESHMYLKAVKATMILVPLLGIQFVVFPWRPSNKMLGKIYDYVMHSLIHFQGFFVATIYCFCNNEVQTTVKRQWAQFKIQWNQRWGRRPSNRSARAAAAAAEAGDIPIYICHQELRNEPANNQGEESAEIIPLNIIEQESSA
T1 sequence (O60896 24-148 partner): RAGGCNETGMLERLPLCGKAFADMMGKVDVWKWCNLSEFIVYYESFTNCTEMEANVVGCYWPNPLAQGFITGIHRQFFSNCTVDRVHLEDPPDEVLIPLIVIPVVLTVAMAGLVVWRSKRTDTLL
Outline: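 Monoclonal cell line stably overexpressing human AMY3 receptor, 2000 cells/well in DPBS with 0.05% casein and 0.5 mM IBMX. Stimulated 30 min at room temperature with graded compound doses, human amylin as positive control. cAMP accumulation read by TR-FRET after one hour.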

hAM1 receptor = hAM1 receptor (Homo sapiens, UniProt O60895+Q16602); test: cAMP assay for in vitro receptor activation, hAM1-R; assay type: cell-based; settings: cAMP assay, hAM1 receptor; read-out: hAM1R EC50
Outline: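 Receptor activation, read as cAMP, was assessed in thawed cells of a monoclonal hAM1-overexpressing stable line, plated at 8000 cells/well in DPBS supplemented with 0.05% casein and 0.5 mM IBMX.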

[1] = Physical stability of peptide analogues (Thioflavin T fibrillation); assay type: physicochemical; settings: maximum ThT signal normalized between hAMY maximum and buffer background; 40° C., shaking, four days; pH 7 per table title
Outline: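 1 h in 50 mM NaOAc pH 4 / 50 mM NaPi pH 7; + ThT 4 μM final; 40 °C, 700 rpm linear shake 5 min pre-read; ex 450, em 480 nm q10 min × 4 d; LOESS smoothing; max signal normalised to hAMY max vs buffer blank.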

Chain of hAM1 receptor (Q16602 23-461): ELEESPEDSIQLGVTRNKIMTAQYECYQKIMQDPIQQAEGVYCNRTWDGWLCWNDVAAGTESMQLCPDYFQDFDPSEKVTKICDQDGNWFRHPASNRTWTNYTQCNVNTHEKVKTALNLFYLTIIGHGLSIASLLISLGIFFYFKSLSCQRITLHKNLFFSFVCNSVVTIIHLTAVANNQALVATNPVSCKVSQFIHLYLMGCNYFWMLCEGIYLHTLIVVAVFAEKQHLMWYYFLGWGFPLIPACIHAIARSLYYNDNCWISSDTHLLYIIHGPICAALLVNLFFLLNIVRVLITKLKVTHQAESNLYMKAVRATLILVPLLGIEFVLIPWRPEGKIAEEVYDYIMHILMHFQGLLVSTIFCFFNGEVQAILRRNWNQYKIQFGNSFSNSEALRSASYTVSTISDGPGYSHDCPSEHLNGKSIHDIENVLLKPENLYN
Chain of hAM1 receptor (O60895 43-175 partner): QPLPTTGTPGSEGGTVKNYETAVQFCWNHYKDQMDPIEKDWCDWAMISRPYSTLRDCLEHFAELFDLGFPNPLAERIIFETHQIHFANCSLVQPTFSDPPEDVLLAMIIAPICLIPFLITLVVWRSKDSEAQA

| EC50 (hAMY3 receptor) | EC50 (hAM1 receptor) | Max ThT signal (%) [1] | SMILES |
| --- | --- | --- | --- |
| 0.006 nM | > 5000 nM | 15.600% | CC[C@H](C)[C@H](NC(=O)[C@H](CCC(N)=O)NC(=O)[C@H](Cc1c[nH]cn1)NC(=O)[C@H](C)NC(=O)[C@H](CC(C)C)NC(=O)[C@H](CCCNC(N)=O)NC(=O)[C@H](CCC(N)=O)NC(=O)[C@@H](NC(=O)[C@@H](NC(=O)[C@@H]1CSSC[C@H](NC(=O)[C@@H](N)CCCCN)C(=O)N[C@@H](CC(N)=O)C(=O)N[C@@H]([C@@H](C)O)C(=O)N[C@@H](C)C(=O)N[C@@H]([C@@H](C)O)C(=O)N1)[C@@H](C)O)C(C)C)C(=O)N[C@@H](Cc1ccc(O)cc1)C(=O)N[C@@H](CCC(N)=O)C(=O)N[C@@H](Cc1ccccc1)C(=O)N[C@@H](C)C(=O)N[C@@H](CC(=O)O)C(=O)N[C@@H](CCCCN)C(=O)N[C@@H](CC(=O)O)C(=O)N[C@@H](CCCCN)C(=O)N[C@@H](CC(=O)O)C(=O)N[C@@H](CC(N)=O)C(=O)N[C@H](C(=O)N[C@@H](C)C(=O)N1CCC[C@H]1C(=O)N1CCC[C@H]1C(=O)N[C@H](C(=O)N[C@@H](CC(N)=O)C(=O)N[C@H](C(=O)NCC(=O)N[C@@H](CO)C(=O)N[C@@H](CC(N)=O)C(=O)NCC(=O)N1C[C@H](O)C[C@H]1C(N)=O)C(C)C)[C@@H](C)O)C(C)C [compound 249] (H-KCNTATCTVQ[Cit]LAHQIYQFADKDKDNVAPPTNVGSNG[Hyp]-NH2; disulfide 2-7; N-terminus assumed) |
| 0.011 nM | > 5000 nM | 6.400% | CC[C@H](C)[C@H](NC(=O)[C@H](CCC(N)=O)NC(=O)[C@H](Cc1c[nH]cn1)NC(=O)[C@H](C)NC(=O)[C@H](CC(C)C)NC(=O)[C@H](CCCNC(N)=O)NC(=O)[C@H](CCC(N)=O)NC(=O)[C@@H](NC(=O)[C@@H](NC(=O)[C@@H]1CSSC[C@H](NC(=O)[C@@H](N)CCCCN)C(=O)N[C@@H](CC(N)=O)C(=O)N[C@@H]([C@@H](C)O)C(=O)N[C@@H](C)C(=O)N[C@@H]([C@@H](C)O)C(=O)N1)[C@@H](C)O)C(C)C)C(=O)N[C@@H](Cc1ccc(O)cc1)C(=O)N[C@@H](CCC(N)=O)C(=O)N[C@@H](Cc1ccccc1)C(=O)N[C@H](C(=O)N[C@@H](CC(=O)O)C(=O)N[C@@H](CCCCN)C(=O)N[C@@H](CC(=O)O)C(=O)N[C@@H](C)C(=O)N[C@@H](CC(=O)O)C(=O)N[C@@H](CC(N)=O)C(=O)N[C@H](C(=O)N[C@@H](C)C(=O)N1CCC[C@H]1C(=O)N1CCC[C@H]1C(=O)N[C@H](C(=O)N[C@@H](CC(N)=O)C(=O)N[C@H](C(=O)NCC(=O)N[C@@H](CO)C(=O)N[C@@H](CC(N)=O)C(=O)NCC(=O)N1C[C@H](O)C[C@H]1C(N)=O)C(C)C)[C@@H](C)O)C(C)C)[C@@H](C)O [compound 250] (H-KCNTATCTVQ[Cit]LAHQIYQFTDKDADNVAPPTNVGSNG[Hyp]-NH2; disulfide 2-7; N-terminus assumed) |
| 0.006 nM | > 5000 nM | 10.600% | CC[C@H](C)[C@H](NC(=O)[C@H](CCC(N)=O)NC(=O)[C@H](Cc1c[nH]cn1)NC(=O)[C@H](C)NC(=O)[C@H](CC(C)C)NC(=O)[C@H](CCCNC(N)=O)NC(=O)[C@H](CCC(N)=O)NC(=O)[C@@H](NC(=O)[C@@H](NC(=O)[C@@H]1CSSC[C@H](NC(=O)[C@@H](N)CCCCN)C(=O)N[C@@H](CC(N)=O)C(=O)N[C@@H]([C@@H](C)O)C(=O)N[C@@H](C)C(=O)N[C@@H]([C@@H](C)O)C(=O)N1)[C@@H](C)O)C(C)C)C(=O)N[C@@H](Cc1ccc(O)cc1)C(=O)N[C@@H](CCC(N)=O)C(=O)N[C@@H](Cc1ccccc1)C(=O)N[C@H](C(=O)N[C@@H](CC(=O)O)C(=O)N[C@@H](CCCCN)C(=O)N[C@@H](CC(=O)O)C(=O)N[C@@H](CCCCN)C(=O)N[C@@H](CC(=O)O)C(=O)N[C@@H](CC(N)=O)C(=O)N[C@@H](C)C(=O)N[C@@H](C)C(=O)N1CCC[C@H]1C(=O)N1CCC[C@H]1C(=O)N[C@H](C(=O)N[C@@H](CC(N)=O)C(=O)N[C@H](C(=O)NCC(=O)N[C@@H](CO)C(=O)N[C@@H](CC(N)=O)C(=O)NCC(=O)N1C[C@H](O)C[C@H]1C(N)=O)C(C)C)[C@@H](C)O)[C@@H](C)O [compound 251] (H-KCNTATCTVQ[Cit]LAHQIYQFTDKDKDNAAPPTNVGSNG[Hyp]-NH2; disulfide 2-7; N-terminus assumed) |
| 0.006 nM | > 5000 nM | 27.550% | CC[C@H](C)[C@H](NC(=O)[C@H](CCC(N)=O)NC(=O)[C@H](Cc1c[nH]cn1)NC(=O)[C@H](C)NC(=O)[C@H](CC(C)C)NC(=O)[C@H](CCCNC(N)=O)NC(=O)[C@H](CCC(N)=O)NC(=O)[C@@H](NC(=O)[C@@H](NC(=O)[C@@H]1CSSC[C@H](NC(=O)[C@@H](N)CCCCN)C(=O)N[C@@H](CC(N)=O)C(=O)N[C@@H]([C@@H](C)O)C(=O)N[C@@H](C)C(=O)N[C@@H]([C@@H](C)O)C(=O)N1)[C@@H](C)O)C(C)C)C(=O)N[C@@H](Cc1ccc(O)cc1)C(=O)N[C@@H](CCC(N)=O)C(=O)N[C@@H](Cc1ccccc1)C(=O)N[C@H](C(=O)N[C@@H](CC(=O)O)C(=O)N[C@@H](CCCCN)C(=O)N[C@@H](CC(=O)O)C(=O)N[C@@H](CCCCN)C(=O)N[C@@H](CC(=O)O)C(=O)N[C@@H](CC(N)=O)C(=O)N[C@H](C(=O)N[C@@H](C)C(=O)N1CCC[C@H]1C(=O)N[C@@H](C)C(=O)N[C@H](C(=O)N[C@@H](CC(N)=O)C(=O)N[C@H](C(=O)NCC(=O)N[C@@H](CO)C(=O)N[C@@H](CC(N)=O)C(=O)NCC(=O)N1C[C@H](O)C[C@H]1C(N)=O)C(C)C)[C@@H](C)O)C(C)C)[C@@H](C)O [compound 252] (H-KCNTATCTVQ[Cit]LAHQIYQFTDKDKDNVAPATNVGSNG[Hyp]-NH2; disulfide 2-7; N-terminus assumed) |
| 0.004 nM | > 5000 nM | 9.600% | CC[C@H](C)[C@H](NC(=O)[C@H](CCC(N)=O)NC(=O)[C@H](Cc1c[nH]cn1)NC(=O)[C@H](C)NC(=O)[C@H](CC(C)C)NC(=O)[C@H](CCCNC(N)=O)NC(=O)[C@H](CCC(N)=O)NC(=O)[C@@H](NC(=O)[C@@H](NC(=O)[C@@H]1CSSC[C@H](NC(=O)[C@@H](N)CCCCN)C(=O)N[C@@H](CC(N)=O)C(=O)N[C@@H]([C@@H](C)O)C(=O)N[C@@H](C)C(=O)N[C@@H]([C@@H](C)O)C(=O)N1)[C@@H](C)O)C(C)C)C(=O)N[C@@H](Cc1ccc(O)cc1)C(=O)N[C@@H](CCC(N)=O)C(=O)N[C@@H](Cc1ccccc1)C(=O)N[C@H](C(=O)N[C@@H](CCCCN)C(=O)N[C@@H](CC(=O)O)C(=O)N[C@@H](CCCCN)C(=O)N[C@@H](CC(=O)O)C(=O)N[C@@H](CC(N)=O)C(=O)N[C@H](C(=O)N[C@@H](C)C(=O)N1CCC[C@H]1C(=O)N1CCC[C@H]1C(=O)N[C@H](C(=O)N[C@@H](CC(N)=O)C(=O)N[C@H](C(=O)NCC(=O)N[C@@H](CO)C(=O)N[C@@H](CC(N)=O)C(=O)NCC(=O)N1C[C@H](O)C[C@H]1C(N)=O)C(C)C)[C@@H](C)O)C(C)C)[C@@H](C)O [compound 253] (H-KCNTATCTVQ[Cit]LAHQIYQFTKDKDNVAPPTNVGSNG[Hyp]-NH2; disulfide 2-7; N-terminus assumed) |
| 0.006 nM | > 5000 nM | 12.050% | CC[C@H](C)[C@H](NC(=O)[C@H](CCC(N)=O)NC(=O)[C@H](Cc1c[nH]cn1)NC(=O)[C@H](C)NC(=O)[C@H](CC(C)C)NC(=O)[C@H](CCCNC(N)=O)NC(=O)[C@H](CCC(N)=O)NC(=O)[C@@H](NC(=O)[C@@H](NC(=O)[C@@H]1CSSC[C@H](NC(=O)[C@@H](N)CCCCN)C(=O)N[C@@H](CC(N)=O)C(=O)N[C@@H]([C@@H](C)O)C(=O)N[C@@H](C)C(=O)N[C@@H]([C@@H](C)O)C(=O)N1)[C@@H](C)O)C(C)C)C(=O)N[C@@H](Cc1ccc(O)cc1)C(=O)N[C@@H](CCC(N)=O)C(=O)N[C@@H](Cc1ccccc1)C(=O)N[C@H](C(=O)N[C@@H](CC(=O)O)C(=O)N[C@@H](CCCCN)C(=O)N[C@@H](CC(=O)O)C(=O)N[C@@H](CCCCN)C(=O)N[C@@H](CC(=O)O)C(=O)N[C@@H](CC(N)=O)C(=O)N[C@H](C(=O)N1CCC[C@H]1C(=O)N1CCC[C@H]1C(=O)N[C@H](C(=O)N[C@@H](CC(N)=O)C(=O)N[C@H](C(=O)NCC(=O)N[C@@H](CO)C(=O)N[C@@H](CC(N)=O)C(=O)NCC(=O)N1C[C@H](O)C[C@H]1C(N)=O)C(C)C)[C@@H](C)O)C(C)C)[C@@H](C)O [compound 254] (H-KCNTATCTVQ[Cit]LAHQIYQFTDKDKDNVPPTNVGSNG[Hyp]-NH2; disulfide 2-7) |
